Here are results for six compounds from ChEMBL document CHEMBL1155183, “Synthesis and SAR of 1,4,5,6-tetrahydropyridazines as potent cannabinoid CB1 receptor antagonists” (Bioorg Med Chem Lett, 2009).

As a reminder, the Ki is the dissociation constant of the complex between target and ligand, obtained from inhibition or displacement. A low value points to higher affinity.

Experiment [1] deals with T1, Cannabinoid receptor 1 (Homo sapiens, UniProt P21554). Briefly: Displacement of [3H]CP-55940 from human CB1 receptor expressed in CHO cells. It is filed as cell-based. For orientation: In a radioligand displacement assay an active substance lowers the binding of a labelled ligand.
T1 sequence (P21554 whole entry): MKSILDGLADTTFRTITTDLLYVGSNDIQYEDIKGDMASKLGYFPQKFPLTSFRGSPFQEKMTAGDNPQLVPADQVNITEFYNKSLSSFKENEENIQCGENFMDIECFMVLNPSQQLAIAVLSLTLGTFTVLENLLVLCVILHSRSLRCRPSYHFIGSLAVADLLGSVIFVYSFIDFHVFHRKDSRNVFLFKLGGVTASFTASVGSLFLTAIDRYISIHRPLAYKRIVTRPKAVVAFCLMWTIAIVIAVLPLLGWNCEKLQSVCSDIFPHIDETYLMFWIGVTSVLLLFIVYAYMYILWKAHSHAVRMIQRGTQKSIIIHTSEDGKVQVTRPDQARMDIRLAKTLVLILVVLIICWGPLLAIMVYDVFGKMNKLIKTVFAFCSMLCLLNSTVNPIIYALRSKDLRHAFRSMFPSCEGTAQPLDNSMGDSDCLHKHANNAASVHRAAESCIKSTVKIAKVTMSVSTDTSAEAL
The target of experiment [2] is T1, Cannabinoid receptor 1. Briefly: Antagonist activity at human CB1 receptor expressed in CHO cells assessed as inhibition of CP-55940-induced [3H]arachidonic acid release. The experiment is classed as functional, cell-based. The note with it: read-out: pA2 (converted).
For the next experiment, the target named is Cannabinoid receptor 2 (Homo sapiens, UniProt P34972). The experiment is described as follows: Displacement of [3H]CP-55940 from human CB2 receptor expressed in CHO cells. The experiment is classed as cell-based.
Cannabinoid receptor 2, sequence (P34972 whole entry): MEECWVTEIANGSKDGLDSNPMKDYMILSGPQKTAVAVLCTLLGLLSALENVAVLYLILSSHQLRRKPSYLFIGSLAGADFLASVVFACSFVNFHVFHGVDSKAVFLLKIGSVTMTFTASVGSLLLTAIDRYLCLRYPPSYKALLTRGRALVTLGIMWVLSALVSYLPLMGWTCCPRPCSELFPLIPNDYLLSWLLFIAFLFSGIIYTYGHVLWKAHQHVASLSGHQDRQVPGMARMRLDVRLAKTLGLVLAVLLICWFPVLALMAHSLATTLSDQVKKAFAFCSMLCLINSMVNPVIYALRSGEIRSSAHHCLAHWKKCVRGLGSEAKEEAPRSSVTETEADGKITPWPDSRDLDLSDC
The next experiment is filed under the species Homo sapiens. Briefly: Selectivity ratio of Ki for human CB1 receptor to Ki for human CB2 receptor.

For `CN=C(NS(=O)(=O)N1CCC(F)(F)CC1)N1CC(c2ccccc2)C(c2ccc(Cl)cc2)=N1` (stereo not given), the results for the inhibition constant (Ki) at Cannabinoid receptor 1 [1] and on Cannabinoid receptor 2 were 12.2 nM and 219 nM, respectively. Moreover, the Kb on Cannabinoid receptor 1 [2] was 0.631 nM.

`CN/C(=N\S(=O)(=O)c1ccc(Cl)cc1)N1CCC(c2ccccc2)C(c2ccc(Cl)cc2)=N1` (stereo not given): the figures for the Ki on Cannabinoid receptor 1 [1] and on Cannabinoid receptor 2 were 43 nM and 318 nM, respectively. On Cannabinoid receptor 1 [2], the Kb is 1 nM. For the same compound, in the experiment filed under Homo sapiens, the Ratio Ki was 5.

`CNC(=NS(=O)(=O)N1CCC(F)(F)CC1)N1CCC(c2ccccc2)C(c2ccc(Cl)cc2)=N1` (stereo not given): the Ki on Cannabinoid receptor 1 [1] was found to be 47 nM; on Cannabinoid receptor 2, 247 nM. For the same compound, the Kb on Cannabinoid receptor 1 [2] was 1 nM.

`CN/C(=N\S(=O)(=O)N1CCCCC1)N1CCC(c2ccccc2)C(c2ccc(Cl)cc2)=N1` (stereo not given): the Ratio Ki in the experiment filed under Homo sapiens stood at 5.

Take `CN/C(=N\S(=O)(=O)N1CCC(F)(F)CC1)N1CCC(c2ccccc2)C(c2ccc(Cl)cc2)=N1` (stereo not given): the Ratio Ki in the experiment filed under Homo sapiens came out at 5.

Take `CNC(=NS(=O)(=O)N1CCCCC1)N1CCC(c2ccccc2)C(c2ccc(Cl)cc2)=N1` (stereo not given): the figures for the inhibition constant (Ki) at Cannabinoid receptor 1 [1] and on Cannabinoid receptor 2 were 74 nM and 571 nM, respectively. Also, the Kb at Cannabinoid receptor 1 [2] was 2 nM.
